Results published in patent publication US20050142581A1, “Microrna as ligands and target molecules” (priority 2003, published 2005).
Oligonucleotides are written 5' to 3', each unit as a sugar letter and its base; * is a phosphorothioate linkage, no mark a phosphodiester; rarer units and linkages stand in square brackets, end groups in braces. Plain capitals give the bases only. e = 2'-O-(2-methoxyethyl) (MOE); [5mC] = 5-methylcytosine; d = 2'-deoxy (DNA)

System: human CD40 mRNA
Assay: Inhibition of CD40 mRNA levels by oligonucleotides (real-time RT-PCR)
Type: cell-based
Set-up: concentration or dose not given beside the values
Details: 2'-MOE gapmers, 18 nucleotides, phosphorothioate throughout; averaged from three experiments
Summary of the method: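 Cells at ~80% confluency were transfected with oligonucleotide at 150 nM final using Lipofectin 3.75 μg/ml for 4 h and harvested 16 h after treatment. Poly(A)+ mRNA was taken for TaqMan real-time RT-PCR of CD40, and percent inhibition was derived from a standard curve of untreated control mRNA.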

Row | Substance | % Inhibition (Inhibition of CD40 mRNA Levels by Chimeric Phosphorothioate Oligonucleotides)
1 | 19236 (antisense e[5mC]*eT*e[5mC]*eT*dG*dT*dT*dC*dC*dA*dG*dG*dT*dG*eT*e[5mC]*eT*eA) [compound 19236] | 62.19%
2 | 19237 (antisense e[5mC]*eT*eG*eG*dT*dG*dG*dC*dA*dG*dT*dG*dT*dG*eT*e[5mC]*eT*e[5mC]) [compound 19237] | 70.32%
3 | 19238 (antisense eT*eG*eG*eG*dG*dT*dC*dG*dC*dA*dG*dT*dA*dT*eT*eT*eG*eT) [compound 19238] | 0.00%
4 | 19239 (antisense eG*eG*eT*eT*dG*dG*dG*dG*dT*dC*dG*dC*dA*dG*eT*eA*eT*eT) [compound 19239] | 19.40%
5 | 19240 (antisense e[5mC]*eT*eA*eG*dG*dT*dT*dG*dG*dG*dG*dT*dC*dG*e[5mC]*eA*eG*eT) [compound 19240] | 36.32%
6 | 19241 (antisense eG*eG*eT*eG*dC*dC*dC*dT*dT*dC*dT*dG*dC*dT*eG*eG*eA*e[5mC]) [compound 19241] | 78.91%
7 | 19242 (antisense e[5mC]*eT*eG*eA*dG*dG*dT*dG*dC*dC*dC*dT*dT*dC*eT*eG*e[5mC]*eT) [compound 19242] | 69.84%
8 | 19243 (antisense eG*eT*eG*eT*dC*dT*dG*dT*dT*dT*dC*dT*dG*dA*eG*eG*eT*eG) [compound 19243] | 63.32%
9 | 19244 (antisense eT*eG*eG*eT*dG*dT*dC*dT*dG*dT*dT*dT*dC*dT*eG*eA*eG*eG) [compound 19244] | 42.83%
10 | 19245 (antisense eA*e[5mC]*eA*eG*dG*dT*dG*dC*dA*dG*dA*dT*dG*dG*eT*eG*eT*e[5mC]) [compound 19245] | 73.31%
11 | 19246 (antisense eT*eT*e[5mC]*eA*dC*dA*dG*dG*dT*dG*dC*dA*dG*dA*eT*eG*eG*eT) [compound 19246] | 47.72%
12 | 19247 (antisense eG*eT*eG*e[5mC]*dC*dA*dG*dC*dC*dT*dT*dC*dT*dT*e[5mC]*eA*e[5mC]*eA) [compound 19247] | 61.32%
13 | 19248 (antisense eT*eA*e[5mC]*eA*dG*dT*dG*dC*dC*dA*dG*dC*dC*dT*eT*e[5mC]*eT*eT) [compound 19248] | 46.82%
14 | 19249 (antisense eG*eG*eA*e[5mC]*dA*dC*dA*dG*dC*dT*dC*dT*dC*dA*e[5mC]*eA*eG*eG) [compound 19249] | 0.00%
15 | 19250 (antisense eT*eG*e[5mC]*eA*dG*dG*dA*dC*dA*dC*dA*dG*dC*dT*e[5mC]*eT*e[5mC]*eA) [compound 19250] | 52.05%
16 | 19251 (antisense eG*eA*eG*e[5mC]*dG*dG*dT*dG*dC*dA*dG*dG*dA*dC*eA*e[5mC]*eA*eG) [compound 19251] | 50.15%
17 | 19252 (antisense eA*eA*eG*e[5mC]*dC*dG*dG*dG*dC*dG*dA*dG*dC*dA*eT*eG*eA*eG) [compound 19252] | 32.36%
18 | 19253 (antisense eA*eA*eT*e[5mC]*dT*dG*dC*dT*dT*dG*dA*dC*dC*dC*e[5mC]*eA*eA*eA) [compound 19253] | 0.00%
19 | 19254 (antisense eG*eA*eA*eA*dC*dC*dC*dC*dT*dG*dT*dA*dG*dC*eA*eA*eT*e[5mC]) [compound 19254] | 0.00%
20 | 19255 (antisense eG*eT*eA*eT*dC*dA*dG*dA*dA*dA*dC*dC*dC*dC*eT*eG*eT*eA) [compound 19255] | 36.13%
21 | 19256 (antisense eG*e[5mC]*eT*e[5mC]*dG*dC*dA*dG*dA*dT*dG*dG*dT*dA*eT*e[5mC]*eA*eG) [compound 19256] | 64.65%
22 | 19257 (antisense eG*e[5mC]*eA*eG*dG*dG*dC*dT*dC*dG*dC*dA*dG*dA*eT*eG*eG*eT) [compound 19257] | 74.95%
23 | 19258 (antisense eT*eG*eG*eG*dC*dA*dG*dG*dG*dC*dT*dC*dG*dC*eA*eG*eA*eT) [compound 19258] | 0.00%
24 | 19259 (antisense eG*eA*e[5mC]*eT*dG*dG*dG*dC*dA*dG*dG*dG*dC*dT*e[5mC]*eG*e[5mC]*eA) [compound 19259] | 82.00%

Row | Substance | % Inhibition (Inhibition of CD40 mRNA Levels by Chimeric Phosphorothioate Oligonucleotides)
25 | 19260 (antisense e[5mC]*eA*eT*eT*dG*dG*dA*dG*dA*dA*dG*dA*dA*dG*e[5mC]*e[5mC]*eG*eA) [compound 19260] | 41.31%
26 | 19261 (eG*eA*eT*eG*dA*dC*dA*dC*dA*dT*dT*dG*dG*dA*eG*eA*eA*eG; antisense) [compound 19261] | 13.81%
27 | 19262 (eG*e[5mC]*eA*eG*dA*dT*dG*dA*dC*dA*dC*dA*dT*dT*eG*eG*eA*eG; antisense) [compound 19262] | 78.48%
28 | 19263 (eT*e[5mC]*eG*eA*dA*dA*dG*dC*dA*dG*dA*dT*dG*dA*e[5mC]*eA*e[5mC]*eA; antisense) [compound 19263] | 59.28%
29 | 19264 (eG*eT*e[5mC]*e[5mC]*dA*dA*dG*dG*dG*dT*dG*dA*dC*dA*eT*eT*eT*eT; antisense) [compound 19264] | 70.99%
30 | 19265 (e[5mC]*eA*e[5mC]*eA*dG*dC*dT*dT*dG*dT*dC*dC*dA*dA*eG*eG*eG*eT; antisense) [compound 19265] | 0.00%
31 | 19266 (eT*eT*eG*eG*dT*dC*dT*dC*dA*dC*dA*dG*dC*dT*eT*eG*eT*e[5mC]; antisense) [compound 19266] | 45.92%
32 | 19267 (e[5mC]*eA*eG*eG*dT*dC*dT*dT*dT*dG*dG*dT*dC*dT*e[5mC]*eA*e[5mC]*eA; antisense) [compound 19267] | 63.95%
33 | 19268 (e[5mC]*eT*eG*eT*dT*dG*dC*dA*dC*dA*dA*dC*dC*dA*eG*eG*eT*e[5mC]; antisense) [compound 19268] | 82.32%
34 | 19269 (eG*eT*eT*eT*dG*dT*dG*dC*dC*dT*dG*dC*dC*dT*eG*eT*eT*eG; antisense) [compound 19269] | 70.10%
35 | 19270 (eG*eT*e[5mC]*eT*dT*dG*dT*dT*dT*dG*dT*dG*dC*dC*eT*eG*e[5mC]*e[5mC]; antisense) [compound 19270] | 68.95%
36 | 19271 (e[5mC]*e[5mC]*eA*e[5mC]*dA*dG*dA*dC*dA*dA*dC*dA*dT*dC*eA*eG*eT*e[5mC]; antisense) [compound 19271] | 11.22%
37 | 19272 (e[5mC]*eT*eG*eG*dG*dG*dA*dC*dC*dA*dC*dA*dG*dA*e[5mC]*eA*eA*e[5mC]; antisense) [compound 19272] | 9.04%
38 | 19273 (eT*e[5mC]*eA*eG*dC*dC*dG*dA*dT*dC*dC*dT*dG*dG*eG*eG*eA*e[5mC]; antisense) [compound 19273] | 0.00%
39 | 19274 (e[5mC]*eA*e[5mC]*e[5mC]*dA*dC*dC*dA*dG*dG*dG*dC*dT*dC*eT*e[5mC]*eA*eG; antisense) [compound 19274] | 23.08%
40 | 19275 (eG*eG*eG*eA*dT*dC*dA*dC*dC*dA*dC*dC*dA*dG*eG*eG*e[5mC]*eT; antisense) [compound 19275] | 57.94%
41 | 19276 (eG*eA*eG*eG*dA*dT*dG*dG*dC*dA*dA*dA*dC*dA*eG*eG*eA*eT; antisense) [compound 19276] | 49.14%
42 | 19277 (eA*e[5mC]*e[5mC]*eA*dG*dC*dA*dC*dC*dA*dA*dG*dA*dG*eG*eA*eT*eG; antisense) [compound 19277] | 3.48%
43 | 19278 (eT*eT*eT*eT*dG*dA*dT*dA*dA*dA*dG*dA*dC*dC*eA*eG*e[5mC]*eA; antisense) [compound 19278] | 30.58%
44 | 19279 (eT*eA*eT*eT*dG*dG*dT*dT*dG*dG*dC*dT*dT*dC*eT*eT*eG*eG; antisense) [compound 19279] | 49.26%
45 | 19280 (eG*eG*eG*eT*dT*dC*dC*dT*dG*dC*dT*dT*dG*dG*eG*eG*eT*eG; antisense) [compound 19280] | 13.95%
46 | 19281 (eG*eT*e[5mC]*eG*dG*dG*dA*dA*dA*dA*dT*dT*dG*dA*eT*e[5mC]*eT*e[5mC]; antisense) [compound 19281] | 54.78%
47 | 19282 (eG*eA*eT*e[5mC]*dG*dT*dC*dG*dG*dG*dA*dA*dA*dA*eT*eT*eG*eA; antisense) [compound 19282] | 0.00%
48 | 19283 (eG*eG*eA*eG*dC*dC*dA*dG*dG*dA*dA*dG*dA*dT*e[5mC]*eG*eT*e[5mC]; antisense) [compound 19283] | 69.47%
